Data taken from article PMC8968665, “Verteporfin is a substrate-selective γ-secretase inhibitor that binds the amyloid precursor protein transmembrane domain” (The Journal of Biological Chemistry, 2022).

Experiments:
[1] = molecular target: T1, γ-secretase cleavage of C100-Flag (C99) (Homo sapiens, UniProt P05067); assay: γ-Secretase assay, C100-FLAG cleavage, AICD by anti-Flag Western blot; format: biochemical; conditions: 30 nM LY411,575, 2 µM C100-Flag, 1 nM γ-secretase, Fig. S6A lane 7
T1 construct: C100 is C99 with an added N-terminal Met residue; made in house
T1 sequence (P05067 672-770 limits assumed): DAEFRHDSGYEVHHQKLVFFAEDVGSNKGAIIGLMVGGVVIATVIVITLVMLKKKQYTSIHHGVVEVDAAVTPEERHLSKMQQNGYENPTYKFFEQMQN
Description: The γ-secretase-dependent proteolysis assays with both substrates (C100-FLAG and HexaHis Notch 1 JM/TM) were performed in a weak zwitterionic detergent (CHAPSO, 3-[(3- cholamidopropyl)dimethylammonio]-2-hydroxy-1-propanesulfonate) solubilized conditions ([79], [80]). C100 is C99 with an added N-terminal Met residue. […] Proteolytic reactions were initiated by adding purified substrates (either C100-FLAG(79) or HexaHis-Notch 1 JM/TM(77)) and incubating at 37 °C (16 h for C100Flag and 4 h for HexaHis-Notch 1 JM/TM). Reactions were quenched with SDS, and the cleaved intracellular domain products (AICD-FLAG released from C100-FLAG or truncated intracellular domain (NICD) released from the proteolysis of Hexa-His Notch 1 JM/TM) were visualized by Western blot using specific primary antibodies, anti-FLAG antibody for FLAG-tagged AICD, and neoepitope-specific anti-V1744 antibody for NICD ([80], [83], [84]).

[2] = molecular target: C99 (C-terminal 99 amino acid fragment of the human amyloid precursor protein), as used for IM-MS (human) (UniProt P05067); assay: native MS; native ion mobility-mass spectrometry (IM-MS); 20 uM C99 in 100X CMC LMPG or DDMB micelles, 200 mM ammonium acetate pH 4.5; DMSO or 0-50 uM verteporfin, incubated in the dark overnight; micelles dissociated in the instrument

Sequence of C99 (C-terminal 99 amino acid fragment of the human amyloid precursor protein), as used for IM-MS (P05067 672-770): as the sequence (P05067 672-770 limits assumed) above

| C100-Flag cleavage efficiency (Western blot) [1] | stoichiometry N [2] | Compound |
| --- | --- | --- |
| fully |  | C[C@H](NC(=O)[C@@H](O)c1cc(F)cc(F)c1)C(=O)N[C@@H]1C(=O)N(C)c2ccccc2-c2ccccc21 [LY411,575] |
|  | 2 | C99 (C-terminal 99 amino acid fragment of the human amyloid precursor protein), as used for IM-MS (from UniProt P05067 672-770) (domain or fragment) |
